{
  "source": "patent EP0920857B1",
  "about": "“Oral composition for the treatment of halitosis” (DENTAID, S.A., priority 1997, dated 1999)",
  "type_in_all_cases": "cell-based",
  "key": {"[1]": {"tested_on": "P.gingivalis", "experiment": "minimum inhibitory concentration (MIC), method of diffusion in agar", "excerpt": "(§1) The anti-microbial activity of a certain number of active ingredients was obtained by study of the minimum inhibitory concentrations (MIC) of the respective agents (by the method of diffusion in agar) against bacteria representing periodontal disease."}, "[2]": {"tested_on": "P.intermedia", "experiment": "minimum inhibitory concentration (MIC), method of diffusion in agar", "excerpt": "as §1"}, "[3]": {"tested_on": "A.actinomycetemcomitans", "experiment": "minimum inhibitory concentration (MIC), method of diffusion in agar", "excerpt": "as §1"}, "[4]": {"tested_on": "mixture of periodontal bacteria", "experiment": "short interval killing test (SIKT), total surviving flora", "excerpt": "(§2) The anti-microbial activity of the mouth rinse evaluated \"in vitro\" by mortality studies over short intervals of time (short interval killing test, SIKT) against a mixture of periodontal bacteria containing between 1.0*10^5 and 1.0*10^7 CFU ml of each strain. The total counts obtained in the surviving flora and those pertaining to each strain after one minute of contact are summarised in Tables 3 and 4. TABLA 3"}, "[5]": {"tested_on": "P. gingivalis", "experiment": "short interval killing test (SIKT), count per strain", "excerpt": "as §2"}, "[6]": {"tested_on": "P. intermedia", "experiment": "short interval killing test (SIKT), count per strain", "excerpt": "as §2"}, "[7]": {"tested_on": "Peptostreptococcus micros", "experiment": "short interval killing test (SIKT), count per strain", "excerpt": "as §2"}, "[8]": {"tested_on": "F. nucleatum", "experiment": "short interval killing test (SIKT), count per strain", "excerpt": "as §2"}, "[9]": {"conditions": "one minute of contact, 1.0*10^5 to 1.0*10^7 CFU ml of each strain, PBS = 100%"}, "[10]": {"conditions": "P. gingivalis, one minute of contact, PBS = 100%"}, "[11]": {"conditions": "P. intermedia, one minute of contact, PBS = 100%"}, "[12]": {"conditions": "Peptostreptococcus micros, one minute of contact, PBS = 100%"}, "[13]": {"conditions": "F. nucleatum, one minute of contact, PBS = 100%"}},
  "note": "Like-named read-outs stand apart in the source and are kept apart here.",
  "data": [
    {"smiles": "[H]/N=C(\\N/C(=N/[H])NCCCCCCNC(=N)NC(=N)Nc1ccc(Cl)cc1)Nc1ccc(Cl)cc1", "note": "[Chlorhexidine]", "values": [
      {"measurement": "Minimum inhibitory concentration (%)", "setting": "[1]", "result": 0.002, "unit": "%"},
      {"measurement": "Minimum inhibitory concentration (MIC, % concentration)", "setting": "[2]", "result": 0.0009, "unit": "%"},
      {"measurement": "Minimum inhibitory concentration", "setting": "[3]", "result": 0.004, "unit": "%"}
    ]},
    {"smiles": "Oc1cc(Cl)ccc1Oc1ccc(Cl)cc1Cl", "note": "[Triclosan, 5-chloro-2-(2,4-dichlorophenoxy)-phenol]", "values": [
      {"measurement": "Minimum inhibitory concentration (%)", "setting": "[1]", "result": 0.004, "unit": "%"},
      {"measurement": "Minimum inhibitory concentration (MIC, % concentration)", "setting": "[2]", "result": 0.009, "unit": "%"},
      {"measurement": "Minimum inhibitory concentration", "setting": "[3]", "result": 0.0006, "unit": "%"}
    ]},
    {"smiles": "O=S(=O)([O-])[O-].[Zn+2]", "note": "[Zn^++, sulphate]", "values": [
      {"measurement": "Minimum inhibitory concentration (%)", "setting": "[1]", "result": 0.5, "unit": "%"},
      {"measurement": "Minimum inhibitory concentration (MIC, % concentration)", "setting": "[2]", "result": 0.5, "unit": "%"},
      {"measurement": "Minimum inhibitory concentration", "setting": "[3]", "result": 0.1, "unit": "%"},
      {"measurement": "Total CFU/ml recovered (%) at 1 minute", "setting": "[4]; [9]", "result": 47.65, "unit": "%"},
      {"measurement": "CFU/ml recovered from each strain (%)", "setting": "[5]; [10]", "result": 33.9, "unit": "%"},
      {"measurement": "CFU/ml recovered from each strain (%)", "setting": "[6]; [11]", "result": 0.56, "unit": "%"},
      {"measurement": "CFU/ml recovered from each strain (%)", "setting": "[7]; [12]", "result": 54.5, "unit": "%"},
      {"measurement": "CFU/ml recovered from each strain (%)", "setting": "[8]; [13]", "result": 40.9, "unit": "%"}
    ]},
    {"smiles": "N=C(NCCCCCCNC(=N)NC(=N)Nc1ccc(Cl)cc1)NC(=N)Nc1ccc(Cl)cc1.O=C(O)[C@H](O)[C@@H](O)[C@H](O)[C@H](O)CO.O=C(O)[C@H](O)[C@@H](O)[C@H](O)[C@H](O)CO", "note": "[CHX, 1,6-bis (N^5-p-chlorophenyl-N^1-diguanido)hexane digluconate]", "values": [
      {"measurement": "Total CFU/ml recovered (%) at 1 minute", "setting": "[4]; [9]", "result": 25.55, "unit": "%"},
      {"measurement": "CFU/ml recovered from each strain (%)", "setting": "[5]; [10]", "result": "<0.81", "unit": "%"},
      {"measurement": "CFU/ml recovered from each strain (%)", "setting": "[6]; [11]", "result": "<0.56", "unit": "%"},
      {"measurement": "CFU/ml recovered from each strain (%)", "setting": "[7]; [12]", "result": 82.12, "unit": "%"},
      {"measurement": "CFU/ml recovered from each strain (%)", "setting": "[8]; [13]", "result": 0.87, "unit": "%"}
    ]},
    {"smiles": "CCCCC(CC)CN1CN(CC(CC)CCCC)CC(C)(N)C1", "note": "(centres unmarked) [Hexetidine]", "values": [
      {"measurement": "Minimum inhibitory concentration (%)", "setting": "[1]", "result": 0.001, "unit": "%"},
      {"measurement": "Minimum inhibitory concentration (MIC, % concentration)", "setting": "[2]", "result": 0.001, "unit": "%"},
      {"measurement": "Minimum inhibitory concentration", "setting": "[3]", "result": 0.09, "unit": "%"}
    ]},
    {"smiles": "O=C([O-])[C@H](O)[C@@H](O)[C@H](O)[C@H](O)CO.O=C([O-])[C@H](O)[C@@H](O)[C@H](O)[C@H](O)CO.[Cu+2]", "note": "[Cu^++ gluconate]", "values": [
      {"measurement": "Minimum inhibitory concentration (%)", "setting": "[1]", "result": 0.06, "unit": "%"},
      {"measurement": "Minimum inhibitory concentration (MIC, % concentration)", "setting": "[2]", "result": 0.004, "unit": "%"}
    ]},
    {"smiles": "CCCCCCCCCCCCCCCC[n+]1ccccc1", "note": "[CPC, cetylpyridinium chloride]", "values": [
      {"measurement": "Total CFU/ml recovered (%) at 1 minute", "setting": "[4]", "result": 0.04, "unit": "%"},
      {"measurement": "CFU/ml recovered from each strain (%)", "setting": "[5]", "result": "<0.01", "unit": "%"},
      {"measurement": "CFU/ml recovered from each strain (%)", "setting": "[6]", "result": 0.01, "unit": "%"},
      {"measurement": "CFU/ml recovered from each strain (%)", "setting": "[7]", "result": 0.03, "unit": "%"},
      {"measurement": "CFU/ml recovered from each strain (%)", "setting": "[8]", "result": 0.05, "unit": "%"}
    ]}
  ]
}
